# System: poppy crops
# Test: Example 1: field trial, metsulfuron-methyl 36 or 120 mg/ha at 12-14 leaf and ground cover, morphine crop
# Format: in vivo, Papaver somniferum
# Description: All trials were conducted on poppy crops. Seed was treated with Thiram (5.6 g of Thiram 800/kg seed) and Apron (4 g/kg) and sown at a rate of approximately 750 g/ha. Fertilisers were applied at sowing. Most commonly, either 50:50 lime:superphosphate/triple superphosphate at 125 kg/ha, or lime:superphosphate at 250 kg/ha, were mixed with seed and drilled at a depth of 15 mm. In the same operation, NPK (nitrogen:phosphorus:potassium), at various rates, was banded 75 mm below the seed, unless otherwise stated. All crops were subjected to herbicide sprays for weed control, fungicide sprays for disease control, insecticide sprays if appropriate and were irrigated as required.
# All spray applications were made with a precision sprayer, using Silvan Lurmark flat-fan, low-drift nozzles (LD110-0015). Spray equipment was calibrated to deliver 153 L water/ha.
# At harvest, a 2 m×4 m quadrat was placed in each plot (3 m×6 m, unless otherwise stated) and capsules hand-picked from this area. Capsules were broken up, seed and capsule material separated and weighed. Capsule moisture readings were taken with a moisture meter. Alkaloid yield data were calculated on Pesticide Research Manager (version 5 for Windows) using the formulae below. Briefly, capsule weight was adjusted for moisture to a dry weight, 5% of seed weight was added to this (this amount of capsule material regularly occurs in seed samples after processing) to give a capsule weight per plot. Seed weight was adjusted to 95% of crude weight. Straw weights were determined by multiplying dry capsule weight by 1.3 (estimated amount of stem material in a commercial harvest) and adjusted to 11% moisture. When Lontrel was applied to crops exact capsule and seed weight data were entered. Analyses of variance and a Multiple Range Test were performed on data using Pesticide Research Manager. Significant differences (P=0.05) between treatments are denoted by different lower case letters adjacent to treatment means in the tables of results.
# Metsulfuron-methyl (Compound 1) was applied at a rate of 36 or 120 mg/ha at 12-14 leaf and ground cover growth stages, in a morphine crop.
compound,measurement,setting,value
"COC(=O)c1ccccc1S(=O)(=O)NC(=O)Nc1nc(C)nc(OC)n1 [Compound 1, metsulfuron-methyl]",CAPSULE/SEED RATIO,36 MG/HA at 12-14LF,0.603
same,CROP WEIGHT,36 MG/HA at 12-14LF,3.78 t/ha
same,MORPHINE,36 MG/HA at 12-14LF,24.25 kg/ha
same,SEED,36 MG/HA at 12-14LF,2020 kg/ha
same,STRAW,36 MG/HA at 12-14LF,1757 kg/ha
same,STRAW MORPHINE,36 MG/HA at 12-14LF,1.38%
same,CAPSULE/SEED RATIO,120 MG/HA at 12-14LF,0.673
same,CROP WEIGHT,120 MG/HA at 12-14LF,3.37 t/ha
same,MORPHINE,120 MG/HA at 12-14LF,24.40 kg/ha
same,SEED,120 MG/HA at 12-14LF,1710 kg/ha
same,STRAW,120 MG/HA at 12-14LF,1660 kg/ha
same,STRAW MORPHINE,120 MG/HA at 12-14LF,1.47%
same,CAPSULE/SEED RATIO,120 MG/HA at GC (ground cover),1.253
same,CROP WEIGHT,120 MG/HA at GC (ground cover),3.10 t/ha
same,MORPHINE,120 MG/HA at GC (ground cover),26.19 kg/ha
same,SEED,120 MG/HA at GC (ground cover),1105 kg/ha
same,STRAW,120 MG/HA at GC (ground cover),1999 kg/ha
same,STRAW MORPHINE,120 MG/HA at GC (ground cover),1.31%

# From patent publication US8557737B2, “Methods of altering poppy characteristics” (priority 2005, dated 2013)
